One assay relates to BMDCs. As to the kind of experiment: Antigen-presentation assay using the B3Z reporter system, BMDCs. It counts as cell-based, mouse. The conditions noted are these: for antigen cross-presentation of OVA (B3Z response) vs OVA alone / antigen-presentation activity of cholic acid-NLS peptide conjugates (B3Z response): BMDCs; for antigen cross-presentation of OVA (B3Z response) vs OVA alone: OVA mixed with bile acid/peptide/conjugate, molar ratio 4:1; for antigen-presentation activity of cholic acid-NLS peptide conjugates (B3Z response): OVA admixed, best conjugate: antigen ratio. The protocol: Mouse bone marrow derived DCs (BMDCs) were generated by flushing the whole marrow from mouse femurs using RPMI™ 1640 supplemented with 10% fetal bovine serum (FBS), 50 U/mL Penicillin-Streptomycin, 2 mM L-glutamine, 10 mM HEPES, 1% MEM Non-essential Amino Acids, 1 mM Sodium Pyruvate, 0.5 mM beta-mercaptoethanol. Following red blood cell lysis, cells were then cultured in media supplemented with 50 ng/mL murine recombinant GM-CSF. The media was changed on days 2, 4, 6 and 8. On day 9, the media was replaced to include recombinant murine GM-CSF and LPS from Escherichia coli 0111 (1 ng/mL) to stimulate DC maturation. Mature DCs were assessed by flow cytometry for their surface expression of CD3, CD19, NK1.1, CD11c, CD80, CD86, and I-A^b.
(§1) Various bile acid-NLS conjugates were screened using the B3Z reporter system. The B3Z cell line is a T-cell hybridoma specific for the H2-K^b-[…] complex. Once activated via its TCR, the LacZ reporter gene (under the NFAT promoter control) is expressed. Briefly, 1.5×10^5 BMDCs or 2.5×10^5 MSCs were co-cultured with 5×10^4 B3Z cells treated with the mixing conditions of ovalbumin (OVA) and bile acid-NLS conjugates for overnight at 37° C. with 5% CO2. The following day, all cells were washed twice with PBS (pH 7.4), and the cell pellets were lysed by adding 100 μL of a lysis buffer containing 0.15 mM chlorophenol red-beta-D-galactopyranoside (CPRG) substrate (Calbiochem, La Jolla, CA), 0.125% NP40 (EMD Sciences, La Jolla, CA), 9 mM MgCl2 (Aldrich, USA) and 100 mM 2-mercaptoethanol in PBS. After a 5- or 24-h incubation at 37° C., absorbance was taken at 570 nm with 636 nm as the reference wavelength. For these experiments, OVA was re-suspended in PBS (pH 7.3) at 5-10 mg/mL. The different bile acid-NLS conjugates were re-suspended in H2O at 10 mg/mL. Bile acid-NLS conjugate: antigen mixtures were prepared at different molar ratios according to Table 1.
Variants of CA-SV40NLS were synthesized in order to explore structure-activity relationships relating to the antigen cross-presentation enhancing activity observed for this conjugate, and therefore a measure of antigen/cargo delivery. More particularly, conjugates having different bile acids conjugated to the SV40NLS peptide (SEQ ID NO: 1) were synthesized and their effect on antigen presentation was evaluated by using the B3Z reporter system with the OVA antigen as described in Example 1. […] In FIG. 11, no increase in antigen cross-presentation in BMDCs over the antigen alone (“OVA”) was observed when OVA was mixed with either unconjugated cholic acid (“CA”) or SV40NLS peptide (“SV40NLS”), although lower sensitivity of the B3Z reporter system as compared to the OT-I CD8 T cell-based assay may have been a factor.
(§2) Further variants of CA-SV40NLS were synthesized in which the SV40NLS peptide was replaced with peptides comprising other NLS's (Table 5) and the antigen presentation activities of the CA-NLS peptide conjugates were evaluated using the B3Z reporter system as described in Example 1. The following conjugate: antigen molar ratios were tested for each conjugate: 2:1, 4:1, 8:1, 12:1 and 22:1. The results in FIGS. 12-15 compare the antigen presentation activities of different conjugates at the conjugate: antigen ratio that yielded the highest B3Z response (OD570) for that conjugate.

For a further assay, the system named is WT MSCs. As to the kind of experiment: Antigen cross-presentation assay on wild-type MSCs with B3Z cells. It counts as cell-based, mouse. The conditions noted are these: WT MSCs treated with CA-hnRNPA1 and OVA. The protocol: In order to generate Bone marrow (BM)-derived mouse MSCs, the femurs of 6-8-week-old female Balb/c or C57BL/6 mice were isolated and flushed with Alpha Modification of Eagle's Medium (AMEM) supplemented with 10% FBS and 50 U/mL Penicillin-Streptomycin in a 10 cm cell culture dish, then incubated at 37° C. Two days later, non-adherent cells were removed and the media replaced every 3 to 4 days until plastic-adherent cells reached 80% confluency. The generated cells were detached using 0.05% trypsin and expanded until a uniform MSC population was obtained. The generated MSCs were validated for their innate phenotype by flow-cytometry for the expression of CD44, CD45, CD73, and CD90. The cells were frozen in liquid nitrogen until use.
To assess cross-presentation assay, 25×10^3 cells MSCs were seeded per well in 24-well plate then pulsed with steroid acid peptide-conjugated for 6 h admixed with OVA. At the end of the pulsing period, the cells were washed to remove excess antigen then 5×10^4 B3Z cells. The cells were incubated for 17-19 hours prior to their lysis and incubation for another 4-6 hours at 37° C. with a CPRG solution. The optical density signal was detected at wavelength 570 using a SynergyH1™ microplate reader (Biotek, Winooski, VT, United States).
To determine whether a similar effect occurs in wild type (WT) (i.e., non-engineered) MSCs, BM-derived MSCs (Example 1) were used instead in the same cross presentation assay with B3Z responder cells.

The subject of assay [1] is cross-presenting mesenchymal stromal cell line (cpMSC). As to the kind of experiment: Antigen-presentation assay using the B3Z reporter system, cross-presenting MSC line. It counts as cell-based. The conditions noted are these: cpMSCs, OVA admixed, vs OVA alone or OVA mixed with CA-SV40NLS. The protocol:
as §1, §2

In assay [2] the test system is cpMSCs. In words: OVA-AF647 internalization in cpMSCs, flow cytometry. The conditions noted are these: various molar ratios. It counts as cell-based. The protocol: For this experiment, a cross-presenting mesenchymal stromal cell line (cpMSC) was used as the antigen presenting cells, which were pulsed with the OVA cargo labelled with Alexa Fluor 647 (i.e., OVA^647)^TM. OVA^647 fluorescence was measured by flow cytometry. Different ratios of CA (NLS1 RPS17 [FIG. 16A]; NLS3 RPS17 [FIG. 16B]; and PQBP-1 [FIG. 16C] to antigen (CA: OVA=22:1, 12:1, 8:1, 4:1, and 2:1) were tested (hnRNPA1 M9 NLS at 2:1).
(§3) To further dissect the effect of bile acid peptide conjugates on antigen presentation, antigen internalization and processing were evaluated. cpMSCs were pulsed with OVA-labelled with AF647 in the presence of various molar ratios of different bile acid peptide conjugates, NLS1-RPS17 [FIG. 16A]; NLS3 RPS17 [FIG. 16B]; PQBP-1 [FIG. 16C]; and hnRNPA1 M9 NLS [FIG. 6]) and fluorescence was assessed by flow cytometry. […] OVA processing was assessed by pulsing cpMSCs with DQ™-Ovalbumin (OVA-DQ) in the presence of the same bile acid peptide conjugates as in FIGS. 6 and 16.

For assay [3], the system named is cpMSCs. In words: OVA-DQ processing in cpMSCs, flow cytometry. It counts as cell-based. The conditions noted are these: various molar ratios. The protocol: For this experiment, a cross-presenting mesenchymal stromal cell line (cpMSC) was used as the antigen presenting cells, which were pulsed with DQ™ Ovalbumin (i.e., OVADQ). OVADQ fluorescence was measured by flow cytometry. Different ratios of CA (NLS1 RSP17 [FIG. 17A]; NLS3 RPS17 [FIG. 17B]; and PQBP-1 [FIG. 17C] to antigen (CA: OVA=22:1, 12:1, 8:1, 4:1, and 2:1) were tested (hnRNPA1 M9 NLS at 2:1).
as §3
(In general: Flow cytometry measures light scatter and fluorescence of single cells or particles in a stream.)

Where no end group is shown, it is not given here.

On to `C[C@H](CCC(=O)O)[C@H]1CC[C@H]2[C@@H]3[C@H](O)C[C@@H]4C[C@H](O)CC[C@]4(C)[C@H]3C[C@H](O)[C@]12C` [CA, cholic acid, reference compound], for which, in the assay on BMDCs, the “antigen cross-presentation of OVA (B3Z response) vs OVA alone” value (shortened to “antigen cross-presentation … vs OVA alone”) was “no increase”.

Consider `c1ccc2c(c1)[I+]c1ccccc1-2` [DPI, diphenyleneiodonium chloride], for which the “effect of inhibitor on the antigen cross-presentation capacity of CA-hnRNPA1” value in the assay with WT MSCs is recorded as “neutralization”.

For `C[C@H](CCC(=O)NCC(=O)O)[C@H]1CC[C@H]2[C@@H]3[C@@H](O)C[C@@H]4C[C@H](O)CC[C@]4(C)[C@H]3CC[C@]12C` [GUDCA, glycoursodeoxycholic acid, reference compound], the “immunogen enhancer activity across GUDCA: OVA molar ratios” value in the assay with BMDCs (2:1, 4:1, 8:1, 12:1 and 22:1) is given as “observed at all GUDCA: OVA molar ratios tested”. In the assay with BMDCs (OVA mixed with unconjugated GUDCA, 22:1, data not shown), the “increase in B3Z response (OD570) over OVA alone” value is ≤ 30%. Consider `CC(=O)c1ccc2c(c1)Nc1ccccc1S2` [ML171], for which, in the assay on WT MSCs, the “effect of inhibitor on the antigen cross-presentation capacity of CA-hnRNPA1” value is listed as “neutralization”. Same read-out and setting: as for `CC1(C)CC(NC(=O)C[P+](c2ccccc2)(c2ccccc2)c2ccccc2)CC(C)(C)N1[O]` [MitoTempo™], the entry is “did not neutralize”; as for `CC(=O)N[C@@H](CS)C(=O)O` [N-acetylcysteine], “neutralization”; as for `Cc1c(C)c2c(c(C)c1O)CC[C@@](C)(CCC[C@H](C)CCC[C@H](C)CCCC(C)C)O2` [α-tocopherol], “neutralization”. As to “GCDCA: glycochenodeoxycholic acid conjugated to the SV40NLS peptide (SEQ ID NO: 1) ({Glycochenodeoxycholic acid}-CGYGPKKKRKVGG; also: glycochenodeoxycholic acid conjugate, MOD_RES 1 Cholic Acid (ChAc))”, the “antigen cross-presentation … vs OVA alone” value in the assay with BMDCs is “comparable or higher”. Consider “GWG-SV40NLS: cholic acid conjugated to peptide CGWWGYGPKKKRKVGGWWG (SEQ ID NO: 3) (not fully specified (N-terminus); also: cholic acid conjugate, site not given here)”, for which the “antigen-presentation activity of cholic acid-NLS peptide conjugates (B3Z response)” value (from here on “antigen-presentation activity”) is on record as “higher antigen-presentation activity than SV40NLS” with BMDCs and “strikingly high antigen-presentation activity” in assay [1]. Regarding “NLS2-RG Domain RPS17: cholic acid conjugated to NLS2-RG Domain RPS17 peptide (SEQ ID NO: 8) (CNKRVCEEIAIIPSKKLRNKGSGRIQRGPVRGIS; cysteine pairing not given here; also: cholic acid conjugate, site not given here)”, in the assay on BMDCs, the “antigen-presentation activity” value was “high antigen presentation activity”.

For the compound “NLS3-RPS17: cholic acid conjugated to NLS3 RPS17 peptide SKKLRNKIAGYVTHLMKRI (SEQ ID NO: 11)”, in the assay on BMDCs, the “antigen-presentation activity” value is on record as “high antigen presentation activity”. Also, in the assay with cpMSCs [2], the “OVA internalization (OVA-AF647 fluorescence)” value was “enhance OVA internalization”. Besides, the “OVA processing (OVA-DQ fluorescence)” value in the assay with cpMSCs [3] is on record as “enhance OVA processing”.

On to “PQBP-1 NLS: cholic acid conjugated to PQBP-1 NLS peptide CADREEGKERRHHRREELAPY (SEQ ID NO: 7) (not fully specified (N-terminus); also: cholic acid conjugate, site not given here)”, for which the “antigen-presentation activity” value (in the assay on BMDCs; in assay [1]) was “strikingly high antigen-presentation activity” throughout. The “OVA internalization (OVA-AF647 fluorescence)” value in the assay on cpMSCs [2] is reported as “enhance OVA internalization”. Besides, the “OVA processing (OVA-DQ fluorescence)” value in the assay with cpMSCs [3] is given as “enhance OVA processing”. Consider “SV40NLS: unconjugated NLS peptide CGYGPKKKRKVGG (SEQ ID NO: 1) (not fully specified) [reference compound]”, for which, in the assay with BMDCs, the “antigen cross-presentation … vs OVA alone” value is reported as “no increase”. For “UDCA: ursodeoxycholic acid conjugated to the SV40NLS peptide (SEQ ID NO: 1) (CGYGPKKKRKVGG; not fully specified (N-terminus); also: ursodeoxycholic acid conjugate, site not given here)”, the “antigen cross-presentation … vs OVA alone” value with BMDCs is listed as “comparable or higher”.

With “cMyc NLS: cholic acid conjugated to cMyc NLS peptide CGYGPAAKRVKLDGG (SEQ ID NO: 12) (not fully specified (N-terminus); also: cholic acid conjugate, site not given here)”, the “antigen-presentation activity” value with BMDCs is listed as “high antigen presentation activity”.

The values are drawn from US20250049914A1, “STEROID ACID-PEPTIDE BASED INTRACELLULAR CARGO DELIVERY” (DEFENCE THERAPEUTICS INC., priority 2021, published 2025).
